Test results: ChEMBL document CHEMBL1201862, “PubChem BioAssay data set” (2004)
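Cells were grown in 96-well plates and exposed to each compound for 48 hours at five concentrations; endpoints were interpolated linearly between bracketing concentrations, or set to the highest concentration if not reached. GI50 is the concentration that inhibits growth by half.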 Activity calls are given as the source filed them. No stated cut-off is given here; in the data, active = GI50 up to about 1.1 µM and inactive = higher.

Key:
Test in all cases: DTP human tumour cell line panel, 48 h
[1] = test system: 786-0
[2] = test system: A498
[3] = test system: A549
[4] = test system: ACHN
[5] = test system: BT-549
[6] = test system: CAKI-1
[7] = test system: CCRF-CEM
[8] = test system: COLO 205
[9] = test system: DU-145
[10] = test system: EKVX
[11] = test system: HCC 2998
[12] = test system: HCT-116
[13] = test system: HCT-15
[14] = test system: HL-60
[15] = test system: HOP-62
[16] = test system: HOP-92
[17] = test system: HT-29
[18] = test system: Hs-578T
[19] = test system: IGROV-1
[20] = test system: K562
[21] = test system: KM12
[22] = test system: LOX IMVI
[23] = test system: M14
[24] = test system: MCF7
[25] = test system: MDA-MB-231
[26] = test system: MDA-MB-435
[27] = test system: MDA-N
[28] = test system: MOLT-4
[29] = test system: Malme-3M
[30] = test system: NCI-H226
[31] = test system: NCI-H23
[32] = test system: NCI-H460
[33] = test system: NCI-H522
[34] = test system: NCI/ADR-RES
[35] = test system: OVCAR-3
[36] = test system: OVCAR-4
[37] = test system: OVCAR-5
[38] = test system: OVCAR-8
[39] = test system: PC-3
[40] = test system: RPMI-8226
[41] = test system: RXF 393
[42] = test system: SF-268
[43] = test system: SF-295
[44] = test system: SF-539
[45] = test system: SK-MEL-28
[46] = test system: SK-MEL-2
[47] = test system: SK-MEL-5
[48] = test system: SK-OV-3
[49] = test system: SN12C
[50] = test system: SNB-19
[51] = test system: SNB-75
[52] = test system: SR
[53] = test system: SW-620
[54] = test system: T47D
[55] = test system: TK-10
[56] = test system: U-251
[57] = test system: UACC-257
[58] = test system: UACC-62
[59] = test system: UO-31

CC(C)(C)C1CCC2c3c([nH]c4ccccc34)C3C(=O)N(c4cccc(Cl)c4)C(=O)C3C2C1 (stereo not drawn)
GI50 [1]: 8.28 µM (inactive)
GI50 [2]: 22.6 µM (inactive)
GI50 [3]: 14.2 µM (inactive)
GI50 [4]: 9.33 µM (inactive)
GI50 [5]: 21.1 µM (inactive)
GI50 [6]: 17.8 µM (inactive)
GI50 [7]: 4.3 µM (inactive)
GI50 [8]: 12 µM (inactive)
GI50 [9]: 11.7 µM (inactive)
GI50 [10]: 11.5 µM (inactive)
GI50 [11]: 3.72 µM (inactive)
GI50 [12]: 6.3 µM (inactive)
GI50 [13]: 14.5 µM
GI50 [14]: 3.01 µM (inactive)
GI50 [15]: 0.518 µM (active)
GI50 [16]: 5.05 µM (inactive)
GI50 [17]: 6.38 µM (inactive)
GI50 [18]: 23.7 µM (inactive)
GI50 [19]: 13.8 µM (inactive)
GI50 [20]: 2.44 µM (inactive)
GI50 [21]: 5.01 µM (inactive)
GI50 [22]: 7.48 µM (inactive)
GI50 [23]: 9.98 µM (inactive)
GI50 [24]: 2.06 µM (inactive)
GI50 [25]: 14.2 µM (inactive)
GI50 [26]: 10.5 µM (inactive)
GI50 [27]: 11 µM (inactive)
GI50 [28]: 1.85 µM (inactive)
GI50 [29]: 16.6 µM (inactive)
GI50 [30]: 19 µM (inactive)
GI50 [31]: 8.49 µM (inactive)
GI50 [32]: 4.63 µM (inactive)
GI50 [33]: 15.8 µM (inactive)
GI50 [34]: 13.6 µM (inactive)
GI50 [35]: 15.1 µM (inactive)
GI50 [36]: 14.6 µM (inactive)
GI50 [37]: 13.5 µM (inactive)
GI50 [38]: 17.7 µM (inactive)
GI50 [39]: 7.1 µM (inactive)
GI50 [40]: 9.27 µM (inactive)
GI50 [41]: 8.36 µM (inactive)
GI50 [42]: 13 µM (inactive)
GI50 [43]: 18.5 µM (inactive)
GI50 [44]: 17.5 µM (inactive)
GI50 [45]: 14.2 µM (inactive)
GI50 [46]: 17 µM (inactive)
GI50 [47]: 13.5 µM (inactive)
GI50 [48]: 24.1 µM (inactive)
GI50 [49]: 5.71 µM (inactive)
GI50 [50]: 33.5 µM (inactive)
GI50 [51]: 14.1 µM (inactive)
GI50 [52]: 4.36 µM (inactive)
GI50 [53]: 9.62 µM (inactive)
GI50 [54]: 9.16 µM (inactive)
GI50 [55]: 16.8 µM (inactive)
GI50 [56]: 13.9 µM (inactive)
GI50 [57]: 9.33 µM (inactive)
GI50 [58]: 12.9 µM (inactive)
GI50 [59]: 9.12 µM (inactive)

S=c1ssc2c3ssc(=S)c3n(Cc3ccccc3)c12
GI50 [1]: 37.3 µM (inactive)
GI50 [2]: > 100 µM (inactive)
GI50 [3]: > 100 µM (inactive)
GI50 [4]: > 100 µM (inactive)
GI50 [5]: > 100 µM (inactive)
GI50 [6]: > 100 µM (inactive)
GI50 [7]: 17.2 µM (inactive)
GI50 [8]: > 100 µM (inactive)
GI50 [9]: 54 µM (inactive)
GI50 [10]: 69.7 µM (inactive)
GI50 [11]: > 100 µM (inactive)
GI50 [12]: > 100 µM (inactive)
GI50 [13]: 39.3 µM
GI50 [14]: > 100 µM (inactive)
GI50 [15]: > 100 µM (inactive)
GI50 [16]: > 100 µM (inactive)
GI50 [17]: > 100 µM (inactive)
GI50 [18]: > 100 µM (inactive)
GI50 [19]: > 100 µM (inactive)
GI50 [20]: 40.9 µM (inactive)
GI50 [21]: > 100 µM (inactive)
GI50 [22]: 43.2 µM (inactive)
GI50 [23]: > 100 µM (inactive)
GI50 [24]: 81.3 µM (inactive)
GI50 [25]: > 100 µM (inactive)
GI50 [26]: > 100 µM (inactive)
GI50 [27]: > 100 µM (inactive)
GI50 [28]: 4.9 µM (inactive)
GI50 [29]: > 100 µM (inactive)
GI50 [30]: > 100 µM (inactive)
GI50 [31]: > 100 µM (inactive)
GI50 [32]: > 100 µM (inactive)
GI50 [33]: 83.2 µM (inactive)
GI50 [34]: > 100 µM (inactive)
GI50 [35]: > 100 µM (inactive)
GI50 [36]: > 100 µM (inactive)
GI50 [37]: > 100 µM (inactive)
GI50 [38]: 74.8 µM (inactive)
GI50 [39]: 74.6 µM (inactive)
GI50 [40]: > 100 µM (inactive)
GI50 [41]: 0.494 µM (active)
GI50 [42]: 59.2 µM (inactive)
GI50 [43]: > 100 µM (inactive)
GI50 [44]: 21.3 µM (inactive)
GI50 [45]: > 100 µM (inactive)
GI50 [46]: > 100 µM (inactive)
GI50 [47]: > 100 µM (inactive)
GI50 [48]: > 100 µM (inactive)
GI50 [49]: > 100 µM (inactive)
GI50 [50]: > 100 µM (inactive)
GI50 [51]: 98.4 µM (inactive)
GI50 [52]: 0.67 µM (active)
GI50 [53]: > 100 µM (inactive)
GI50 [54]: 22.3 µM (inactive)
GI50 [55]: > 100 µM (inactive)
GI50 [56]: 60.5 µM (inactive)
GI50 [57]: > 100 µM (inactive)
GI50 [58]: 40.3 µM (inactive)
GI50 [59]: 20.3 µM (inactive)
